Source: patent US9359451B2, “Methods and compositions for treating trauma-hemorrhage using estrogen and derivatives thereof” (THE UAB RESEARCH FOUNDATION, priority 2012, dated 2016)

Key:
injured brain = test: Traumatic brain injury: FDG-PET/CT, diffusion tensor imaging and MRI edema; format: in vivo, rat
Protocol: In a second experiment, the efficacy of E2-SO4 treatment for TBI in a lateral fluid percussion (LFP) model was examined. This involved 6 groups of rats (n=5/group). All rats received a craniectomy. Groups 1, 2, 4 and 5 received LFP injury. Groups 1 and 4 were treated with E2 (1 mg/kg) 1 hr post-injury, groups 2 and 5 were vehicle (Veh)-treated and groups 3 and 6 were sham. Groups 1-3 underwent intracranial pressure (ICP), cerebral perfusion pressure (CPP) and partial oxygen pressure (pbtO2) monitoring. Groups 4-6 underwent fludoexoyglucose (FDG)-PET/CT and diffusion tensor imaging (DTI) analysis on days 1 and 7 post-induction. Relative standard uptake values (SUV) of upper half of brain to central value, fractional anisotropy (FA) and apparent diffusion coefficient (ADC) maps were calculated.
Rats were either treated with E2 or a saline vehicle control, where treatment is administered 1 hour after injury. […] The former is the area of deranged nerves, while the latter constitutes intact nerves.

[1] = rat, in vivo, iv
cardiac performance = test: SPECT-CT of cardiac performance after severe hemorrhage; format: in vivo, rat; conditions: FIG. 46
Protocol: This was measured by SPECT-CT (single photon emission computed tomography-computed tomography) which enables the measurement of the volume of blood forced from the heart visualized through 3-D, real-time imaging (FIG. 46).

Splenocytes = test: Splenocyte proliferation and cytokine release after trauma-hemorrhage (ex vivo, Con A); format: in vivo, mouse
Protocol: Experimental groups. Ovariectomy was performed in female CBA/J mice 2 wk before trauma-hemorrhage using two dorsolateral incisions. […] Two weeks after ovariectomy, the animals were divided into four groups. Groups 1 and 2 consisted of sham-operated ovariectomized females, which were neither hemorrhaged nor resuscitated. Animals in groups 3 and 4 consisted of ovariectomized females, which were subjected to the trauma-hemorrhage procedure. Immediately before initiation of fluid resuscitation, animals in groups 1 and 3 received a subcutaneous injection of vehicle ([…] corn oil), and animals in groups 2 and 4 were treated with E2 ([…]/25 g body wt dissolved in […] corn oil). Each group consisted of 7-8 animals.
Trauma-hemorrhage procedure. Mice in the trauma-hemorrhage groups were lightly anesthetized with methoxyflurane (Metofane; Pitman Moore, Mundelein, Ill.) and restrained in a supine position, and a 2.5-cm midline laparotomy (i.e., soft tissue trauma induced) was performed, which was then closed aseptically in two layers using 6-0 Ethilon sutures (Ethicon, Somerville, N.J.). Both femoral arteries were then aseptically cannulated with polyethylene-10 tubing (Clay-Adams, Parsippany, N.J.) using a minimal dissection technique, and the animals were allowed to awaken. Blood pressure was constantly monitored by attaching one of the catheters to a blood pressure analyzer (Micro-Med, Louisville, Ky.). Lidocaine was applied to the incision sites to provide analgesia during the study period. Upon awakening, the animals were bled through the other catheter to a mean arterial blood pressure of 35±5 mmHg (mean arterial blood pressure prehemorrhage was 95±5 mmHg), which was maintained for 90 min. At the end of that procedure, the animals were resuscitated with four times the shed blood volume in the form of lactated Ringer solution. The catheters were then removed, the vessels were ligated, and the groin incisions were closed. Sham-operated animals underwent the same surgical procedure, which included ligation of both femoral arteries, but neither hemorrhage nor fluid resuscitation was carried out. There was no mortality observed in this model of trauma-hemorrhage.
Preparation of splenocyte culture. At 24 h after sham operation or trauma-hemorrhage and resuscitation, the spleens were removed aseptically and placed in separate petri dishes containing 4° C. phosphate-buffered saline (PBS) solution. Splenocytes were isolated as previously described in detail (Zellweger 1995). Briefly, the organs were gently ground between frosted microscope slides to produce a single cell suspension. This suspension was centrifuged at 300 g for 15 min. After resuspension, the erythrocytes were lysed hypotonically, and the remaining cells were washed with PBS by centrifugation (300 g, 15 min). Viability was tested using trypan blue exclusion and found to be ˜95% regardless of the group assessed. […] The ability of the splenocyte cultures to produce cytokines in response to a mitogenic challenge was assessed by incubation for 48 h (at 37° C., 5% CO2, and 90% humidity) in the presence of […] concanavalin A (Con A; Pharmacia/LKB Biotech, Piscataway, N.J.). […]
Splenocyte proliferation. […] The cells' ability to proliferate in response to mitogenic stimulation with 0 (negative control) or […] Con A was measured by [^3H]thymidine incorporation technique as previously de scribed (Stephan 1987). […]

degenerate neurons = test: Traumatic brain injury: Fluro-Jade staining of degenerate neurons; format: in vivo, rat; conditions: brain cortex or CA 2/3 hippocampus, 24 hours after 1 mg/kg iv given 1 hour after LFP TBI
Text: As such, the lesser the FJ staining, the greater the neuroprotection. Sections stained with FJ are quantified as FJ positive cells, and are taken from brain cortex or CA 2/3 region of the hippocampus. The groups shown in the graph above are sham+vehicle, sham+E2, TBI+vehicle and TBI+E2.

isolated vascular rings = test: Vascular reactivity of isolated vascular rings in a physiological bath; parameters: species or system rat or pig; conditions: antagonist added to EE-3-SO4
Protocol: Data to delineate the mechanism of action for EE-3-SO4 vis-à-vis effects on the cardiovascular system was acquired. While it is well known that estrogens act on the vascular system by a variety of mechanisms including vasorelaxation per se, specific confirmation of this fact for EE-3-SO4 was needed. […] Vessels are contracted by a variety of agents (i.e., endothelin-1, phenylephrine). The action(s) are measured with a force transducer and recorded digitally. […] (see FIG. 42).

[2] = 24 h after trauma-hemorrhage, Con A 48 h

Row | Compound | reduction in FA, sum of volumes from DTI slices, compared to vehicle controls (injured brain; FIG. 49, treatment 1 hour after injury, images 24 hr after treatment) | FA (fractional anisotropy) change (injured brain; between Veh and treated groups) | Edema size (injured brain; day 1, treated group) [mm^3] | Edema size (injured brain; day 7, treated group) [mm^3] | blood levels after injection [1] | cardiac performance as ejection fraction (SPECT-CT) (cardiac performance) | splenocyte IFN-γ release (Splenocytes; [2]) | splenocyte IL-2 production (Splenocytes; [2]) | splenocyte IL-3 release (Splenocytes; [2]) | splenocyte proliferative capacity (Splenocytes; 24 h after trauma-hemorrhage, Con A, [3H]thymidine) | splenocyte IL-10 production (Splenocytes; after trauma-hemorrhage compared with E2-treated sham-operated animals) | Fluro-Jade positive cells (neurodegeneration) (degenerate neurons) | antagonism of EE-3-SO4's vessel relaxation (isolated vascular rings)
1 | C[C@]12CC[C@@H]3c4ccc(O)cc4CC[C@H]3[C@@H]1CC[C@@H]2O [17β-estradiol] | approximately 50% | No significant FA change | 10.4±2.6 | 1.2±0.7 | attains high blood levels rapidly | substantially enhance cardiac performance as ejection fraction | no depression of IFN-γ production was observed | restored IL-2 productive capacity | significantly improved splenocyte IL-3 release capacity | no depression of splenocyte proliferative capacity was observed | significantly reduced IL-10 production | greater that twofold fewer cells undergoing neurodegeneration | 
2 | C[C@]12CC[C@@H]3c4ccc(O)cc4C[C@@H](CCCCCCCCC[S+]([O-])CCCC(F)(F)C(F)(F)F)[C@H]3[C@@H]1CC[C@@H]2O (stereo partly shown) [ICI 182,780] |  |  |  |  |  |  |  |  |  |  |  |  | completely blocked
